Source: US20100221709A1, “METHODS FOR IDENTIFYING AGENTS THAT MODULATE APOPTOSIS IN CELLS THAT OVER-EXPRESS A BCL-2 FAMILY MEMBER PROTEIN” (priority 2005, published 2010)

Columns and labels:
[1] = test system: TABX1A cells (Bcl-xL antisense); assay: Cell viability by trypan blue dye exclusion; conditions: 2 μg/ml, without fructose, six hours
Text: Briefly, a DNA fragment encoding the full-length mouse Bcl-xL cDNA was isolated from the plasmid pBS-BCL-xL (Tzung et al., Am. J. Path. 150:1985-1995 (1997), incorporated herein by reference in its entirety) by digestion with the restriction endonuclease EcoRI. This EcoRI fragment was cloned into the EcoRI site of the mammalian expression vector pSFFV (Fuhlbrigge et al., Proc. Nat. Acad. Sci. USA 85:5649-5653 (1988)) in both sense and antisense orientations, to form expression plasmids pSFFV-Bc/-xL-WT(sense) or pSFFV-Bc/-xL(antisense), respectively. The tumorigenic murine hepatocyte cell line TAMH was transfected by lipofection (Lipofectamine, Life Technologies, Rockville, Md., according to the manufacturer's recommendations) with the plasmids pSFFV-neo (the control), pSFFV-Bc/-xL-WT(sense) or pSFFV-Bc/-xL(antisense). Characterization of and culture conditions for the cell lines have been previously published (Wu et al., Proc. Nat. Acad. Sci. USA 91:674-78 (1994); Wu et al., Cancer Res. 54:5964-5973 (1994)). Transfectants were selected for the acquisition of neomycin resistance by growing cells in the presence of 750 μg/ml of G418. Bulk transfectants were cloned by limiting dilution and individual clones were screened by immunoblot analysis to determine the level of Bcl-xL, protein expression as described below.
Selected transfectants were then tested for whole cell sensitivity to several apoptotic agents. Transfected cells were cultured to reach approximately 80% confluency prior to plating an equal number of cells from selected clones on 12-well tissue culture plates. The transplanted cells were treated with the following apoptotic agents: 5 μM doxorubicin for 48 hours; 5 μM cisplatin for 48 hours; or with 200 U/ml tumor necrosis factor (TNF) plus 1 μg/ml actinomycin D for 18 hours. Cell viability was determined by trypan blue dye exclusion. The percentage of viable cells was calculated by the number of viable cells (treated with a particular apoptogenic agent) divided by the number in the control group (untreated). […]

[2] = test system: myeloma cell lines (RPMI-8226, U266, NCI-H929); assay type: cell-based, human; conditions: 5 to 20 μg/ml
Method: Cell survival was assayed by exclusion of propidium iodide (PI) (10 mg/ml) by unfixed cells. Annexin V-FITC (Pharmingen) or 3,3′-dihexyloxacarbocyanine iodide (DiOC6(3)) (Molecular Probes) staining was analyzed together with PI to discriminate early apoptotic cells. Apoptotic cells were also measured as sub-G1 events among ethanol-fixed cells stained with […] PI. All cell samples were analyzed using a benchtop FACSCalibur® (Becton Dickinson, San Jose, Calif.) flow cytometer. Flow data were analyzed using MultiCycle AV software (Phoenix Flow Systems). For intracellular pH measurements, cell pellets were washed once and resuspended in 2 ml of HEPES-buffered medium (no phenol red and no serum). Carboxy-SNARF®-1 acetoxymethyl (AM) ester (Molecular Probes, 1 mM stock in DMSO, stored at −20° C.), a long wavelength fluorescent pH indicator, was added to a final concentration of 10 μM, and the cells were incubated for 30 min at 37° C. Following incubation with SNARF®-1 AM, cells were sedimented and the pellets were held on ice. Immediately before analysis, pellets were resuspended in Earle's balanced salt solution (experimental buffer) or high-[K^+] buffer containing nigericin (calibration samples).

NCI-H929 myeloma cells = assay: [3H]-thymidine incorporation; assay type: cell-based, human
Method: (§1) RPMI-8226 cells were grown in 96 well plates for 24 h prior to addition of 2-methoxy antimycins. Antimycin stocks in dimethyl sulfoxide (DMSO) were serially diluted in RPMI. Cells were incubated for 48 h with compounds at final compound concentrations ranging from 10^−4 to 10^−8 M. MTT cell proliferation assays were performed in quadruplicate and percent growth inhibitions were calculated as (A570 (control cells)-A570 (treated cells))/A570 (control cells). GI50 was extrapolated from semi-log plots of the dose response for each compound. […] After 72 h drug exposures, 1 μCi/ml [^3H]-thymidine was added to wells. Cells were incubated for an additional 24 h, and then transferred to GF/C filter plates (Packard) using a plate washer. Filters were dried, added to scintillant, and counted in a TopCount® scintillation counter (Packard). Drug response is expressed as the percentage of vehicle-treated controls, and each value shown is the average of three determinations.

U266 myeloma cells = assay: [3H]-thymidine incorporation; assay type: cell-based, human
Method: as §1

RPMI-8226 myeloma cells = assay: [3H]-thymidine incorporation; assay type: cell-based, human
Method: as §1

[3] = test system: TAMH hepatocyte and RPMI-8226 myeloma cell lines; assay: O2 consumption, Clark electrode; assay type: cell-based; conditions: 10 μM
Method: Respiratory rates of both cell lines were maintained through repeated additions of 10 μM 2-OMeAA, to a final concentration of 90 μM (FIG. 7A). […] The metabolic response to hypoxia is dominated by a shift to glycolytic metabolism characterized by increased rates of glucose uptake and reductive conversion of pyruvate to lactic acid. Real-time glucose consumption and lactate production by TAMH cells grown on microcarrier beads were monitored using a microsequential injection-lab on valve (μSI-LOV) system (Schulz et al., Analyst 127:1293-1298 (2002)). […] Since 2-OMeAA has no effect on cellular respiration at these concentrations, 2-OMeAA induces aerobic glycolysis in TAMH cells. The glycolytic response to 2-OMeAA was proportional to cellular Bcl-xL protein expression (FIG. 7C).

antimycin A
survival [1]: 87%
cytotoxicity, PI exclusion [2]: sensitive
50% growth inhibition (GI50) (NCI-H929 myeloma cells): 0.2 µg/mL
50% growth inhibition (GI50) (U266 myeloma cells): 0.05 µg/mL
50% growth inhibition (GI50) (RPMI-8226 myeloma cells): 0.1 µg/mL
respiration dampened by [3]: > 90%
